In patent publication US10597403B2, “Condensed cyclic compound, composition including the condensed cyclic compound, organic light-emitting device including the condensed cyclic compound, and method of manufacturing the organic light-emitting device” (SAMSUNG ELECTRONICS CO., LTD., priority 2015, dated 2020):

Assays:
[1] = Measurement of glass transition temperature (Tg), scanning calorimetry, JIS K 7121, SII DSC6220; format: physicochemical; conditions: for heat resistance: result in words, from Tg
Protocol: The glass transition temperature may be measured by a method defined in JIS K 7121 or ISO 3146 corresponding thereto. In the following examples, the glass transition temperature was measured by a scanning calorimetric measurement method.
In an argon atmosphere, 2.20 g (5.52 mmol) of Intermediate a, 3.30 g (4.97 mmol) of Intermediate b, 0.078 g (0.11 mmol) of dichlorobis(triphenylphosphine)dipalladium, 55 mL of dioxane, and 28 mL of a 0.5 N sodium carbonate aqueous solution were added to a reaction vessel, and the mixture was stirred at a temperature of 90° C. for 8 hours. After the reaction was completed, the resultant mixture was cooled to room temperature and filtered by using celite. An organic layer obtained therefrom was concentrated and purified by column chromatography, thereby completing the preparation of Compound 1-7 (synthesized amount: 2.97 g, yield: 69.9%) (the structure thereof was identified by LC-MS). A measurement of a glass transition temperature (Tg) was performed based on JIS K 7121 by using SII DSC6220 (manufactured by Seiko Instruments Inc.).
(§1) The glass transition temperature (Tg) and solubility of Compounds 1-5, 1-23, 1-24, and 1-79 were measured. In measuring the solubility, xylene was used as a solvent. The glass transition temperature (Tg) and solubility of each compound is written under each compound number.

[2] = Measurement of solubility in xylene; format: physicochemical; conditions: for solubility: result in words; for solubility / Solubility (xylene): solvent xylene
Protocol: as §1

SMILES | heat resistance [1] | solubility [2] | Solubility (xylene) [2] [wt %] | soluble in a hydrocarbon-based solvent ([2]; toluene or xylene) | Tg (glass transition temperature) ([1]; JIS K 7121, SII DSC6220) [°C]
c1ccc(-c2cc(-c3ccccc3)cc(-c3cccc(-c4nc(-c5ccccc5)nc(-c5cccc(-c6ccc7c(c6)c6cc(-c8ccccc8)ccc6n7-c6ccccc6)c5)n4)c3)c2)cc1 [Compound 1-79] | excellent | excellent | – | – | –
c1ccc(-c2cc(-c3ccccc3)cc(-c3cccc(-c4cc(-c5ccccc5)nc(-c5cccc(-c6cccc7c6c6cc(-c8ccccc8)ccc6n7-c6ccccc6)c5)n4)c3)c2)cc1 [Compound 1-5] | excellent | excellent | – | – | –
c1ccc(-c2cc(-c3ccccc3)cc(-c3cccc(-c4nc(-c5ccccc5)nc(-c5cccc(-c6cccc7c6c6cc(-c8ccccc8)ccc6n7-c6ccccc6)c5)n4)c3)c2)cc1 [Compound 1-7] | – | – | > 10 | soluble | –
c1ccc(-c2cc(-c3ccccc3)cc(-c3cccc(-n4c5ccccc5c5cc(-c6ccc7c(c6)c6cc(-c8ccccc8)ccc6n7-c6ccccc6)ccc54)c3)c2)cc1 [Compound 6-5] | – | – | > 10 | – | 156.6
